Patent US9630914B2, “Multitarget FAAH and COX inhibitors and therapeutical uses thereof” (FONDAZIONE ISTITUTO ITALIANO DI TECNOLOGIA, priority 2012, dated 2017)
Like-named read-outs stand apart in the source and are kept apart here.

Tests used:
gastric mucosa = test: Gastric lesions (gastric irritation, ulceration index); assay type: in vivo; conditions: food-deprived mice
Text: (§1) Male CD1 mice, weighing 25-30 g, (Charles River, Calco, Italy) were used. Procedures were in accordance with the Ethical Guidelines of the International Association for the Study of Pain and were approved by Italian regulations on protection of animals used for experimental and other scientific purposes (D. M. 116192) as well as with European Economic Community regulations (O. J. of E. C. L 358/1 Dec. 18, 1986). Mice were housed in groups of 5 in ventilated cages containing autoclaved cellulose paper as nesting material, with free access to food and water. They were maintained under a 12 h light/dark cycle (lights on at 08:00 a.m.), at controlled temperature (21±1° C.) and relative humidity (55±10%). The animals are randomly divided in groups of 6 mice. Behavioral testing was performed between 9:00 a.m. and 5:00 p.m. Scientists running the experiments were not aware of the treatment protocol at the time of the test (blind procedure).
To study the gastric irritation the protocol of Chan et al. (1995) was followed. […] After 4 h, the mice were killed by CO2 asphyxiation. The stomachs were removed, opened, rinsed in PBS, and the stomach lining was photographed. Scoring was done by observers blinded to experimental conditions, as previously reported (Jain et al., 2002): red coloration=0.5; spot ulcers=1; hemorrhagic streaks=1.5. […]

[1] = test system: carrageenan-induced inflammation and hyperalgesia; test: Carrageenan test (paw edema and thermal hyperalgesia); assay type: in vivo, mice
Text: as §1
The pro-inflammatory agent λ-carrageenan (1% weight-vol^−1 in sterile water, 50 μL) was injected into the left hind paw of slightly restrained mice, and paw volume was measured with a plethysmometer (Ugo Basile, Comerio, Italy), while thermal hyperalgesia was assessed by the method of Hargreaves et al. (1988), measuring the latency to withdraw the hind paw from a focused beam of radiant heat (thermal intensity: infrared 3.0) in a plantar test apparatus (Ugo Basile, Comerio, Italy). Cutoff time was set at 30 s. Withdrawal latencies were measured on both ipsilateral and contralateral paws at various time points after drug administration.
Drug solutions were prepared immediately before use in saline containing 10% PEG-400 and 10% Tween 80 and orally administered in a volume of 2.5 mL-kg^−1 before intraplantar injection of carrageenan.
Results are expressed as the mean±S.E.M., or 95% confidence limits (95% CL). Efficacy data were compared using two-way analysis of variance (ANOVA) followed by Bonferroni's test for multiple comparisons. For gastric toxicity, the significance of differences between groups was determined by one-way ANOVA followed by a Bonferroni's test for multiple comparisons.

ovine COX-1 = ovine COX-1 (Ovis aries (Sheep), UniProt P05979); test: In vitro COX assay (COX Inhibitor Screening Assay Kit), COX-1; assay type: biochemical; conditions: 5 μM arachidonic acid
Sequence of ovine COX-1 (P05979 25-600): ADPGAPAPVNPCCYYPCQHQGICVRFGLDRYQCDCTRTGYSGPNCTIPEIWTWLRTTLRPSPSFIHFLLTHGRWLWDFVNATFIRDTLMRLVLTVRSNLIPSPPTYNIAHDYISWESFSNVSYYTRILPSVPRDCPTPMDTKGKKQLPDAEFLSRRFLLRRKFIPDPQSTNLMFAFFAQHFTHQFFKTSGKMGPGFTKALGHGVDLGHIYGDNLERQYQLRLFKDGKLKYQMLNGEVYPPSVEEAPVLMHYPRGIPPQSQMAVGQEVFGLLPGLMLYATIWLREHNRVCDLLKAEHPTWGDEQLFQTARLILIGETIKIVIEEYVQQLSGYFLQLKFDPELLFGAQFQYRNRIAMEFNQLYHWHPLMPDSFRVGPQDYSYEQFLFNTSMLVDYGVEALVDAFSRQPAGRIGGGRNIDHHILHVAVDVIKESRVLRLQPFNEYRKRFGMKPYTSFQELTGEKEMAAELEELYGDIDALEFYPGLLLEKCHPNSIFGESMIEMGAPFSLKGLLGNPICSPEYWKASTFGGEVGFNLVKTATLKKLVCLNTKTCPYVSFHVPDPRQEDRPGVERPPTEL
Method: COX activity was measured using a commercial kit (COX Inhibitor Screening Assay Kit—Cayman Chemical N. 560131) which includes both ovine COX-1 and human recombinant COX-2 enzymes. Inhibitors were pre-incubated with either ovine COX-1 or human COX-2 in order to screen isozyme-specific inhibition. Differently than described in the kit protocol, the reaction was carried out in the presence of 5 μM arachidonic acid while for the blank sample (no activity) the two enzymes were inactivated for 40 minutes at 100° C. It was then measured the amount of PGF2α produced by reduction with SnCl2 of COX-derived PGH2, via enzyme immunoassay (EIA) using a PG-specific antibody and competing with a PG-acetylcholinesterase conjugate.
Absorbance was measured at 412 nm with a Tecan Infinite M200 plate reader and data were processed according to manufacturer's instructions.
The median inhibitory concentrations (IC50) were determined by non-linear regression analysis of the Log [concentration]/response curves generated with mean replicate values using a four parameter Hill equation curve fitting with GraphPad Prism 5 (GraphPad Software Inc., CA-USA).

FAAH = conditions: literature value; cited from earlier work
[2] = oral, 3, 10, 30 and 100 mg/kg, mouse

For `CC(C(=O)O)c1ccc(-c2ccccc2)c(F)c1` (stereo not shown) [Compound A, flurbiprofen, reference compound], the “gastric irritation and gastric ulcers” value (gastric mucosa; oral 30 mg/kg) was “profound gastric irritation and appearance of gastric ulcers”, the ED50 ([1]; oral, mouse carrageenan model, read-out: ED50 on edema (Δ volume paw)) was 30 mg/kg and the ED50 ([1]; oral, mouse carrageenan model, read-out: ED50 on thermal hyperalgesia (withdrawal latency)) was 30 mg/kg.
For `CCCCCCNC(=O)Oc1cccc(-c2ccc(C(C)C(=O)O)cc2F)c1` (stereo not shown) [Example 12, 2-[3-fluoro-4-[3-(hexylcarbamoyloxy)phenyl]phenyl]propanoic acid], the IC50 (ovine COX-1) was 0.012 µM, the ulcerogenic effect (gastric mucosa; oral, up to 100 mg/kg) was “no ulcerogenic effect” and the ED50 ([1]; Mus musculus, read-out: ED50 on edema (Δ volume paw)) was 10 mg/kg. For the same molecule, the ED50 ([1]; Mus musculus, read-out: ED50 on thermal hyperalgesia (withdrawal latency)) was 10 mg/kg, the “effect on carrageenan-induced inflammation and hyperalgesia” value [1, 2] was “dose-dependent and persistent suppression” and the “potency at inhibiting the responses induced by carrageenan, compared with compound A” value [1, 2] was “more potent than oral compound A”.
In the case of `Cc1cccnc1NC(=O)C(C)c1ccc(CC(C)C)cc1` (stereo not shown) [Ibu-am5], the IC50 (FAAH) is given as 2.7 µM.
